Reference: article PMC11110727, “Exploiting thiol-functionalized benzosiloxaboroles for achieving diverse substitution patterns – synthesis, characterization and biological evaluation of promising antibacterial agents” (RSC Medicinal Chemistry, 2024)
Converted amounts (≈) assume the structure as drawn. Read-outs that look alike come from different tables or passages of the source.

Key:
A. baumannii ATCC 19606 = test: Antibacterial activity: MIC/MBC, MIC with PAβN, disc-diffusion; format: cell-based, Acinetobacter baumannii; settings: Acinetobacter baumannii, ATCC19606
Method in brief: (§1)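 MICs were measured by CLSI broth microdilution in Mueller–Hinton II broth, with or without the efflux-pump inhibitor PAβN (20 μg mL^−1) and with 1 mM MgSO4 present. A reduction of at least 4-fold with PAβN was counted as significant. Disc diffusion followed EUCAST/CLSI, MBC followed CLSI, and compounds were dissolved in DMSO.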

C. tropicalis IBA 171 = test: Antifungal activity: MIC/MFC, disc-diffusion; format: cell-based; settings: for diameter of inhibition zone: C. tropicalis IBA 171, (-) = zone not observed, paper discs 9 mm; for MIC: Candida tropicalis, IBA171
Method in brief: (§2)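 EUCAST/CLSI MIC plus disc-diffusion; MBC, MFC by CLSI. Pre-culture: two passages, 30 °C, 24–48 h (TSA, Sabouraud). Controls fluconazole (fungi) and linezolid (Gram-positives); DMSO vehicle.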

[1] = system: C. guilliermondii IBA 155; test: Antifungal activity: MIC/MFC, disc-diffusion; format: cell-based; settings: for diameter of inhibition zone / MFC: C. guilliermondii IBA 155; for diameter of inhibition zone: (-) = zone not observed, paper discs 9 mm; for MFC / MIC: Meyerozyma guilliermondii, IBA155
Method in brief: as §2

C. tropicalis ATCC 750 = test: Antifungal activity: MIC/MFC, disc-diffusion; format: cell-based; settings: for diameter of inhibition zone: C. tropicalis ATCC 750, (-) = zone not observed, paper discs 9 mm; for MIC: Candida tropicalis, ATCC750
Method in brief: as §2

[2] = system: C. parapsilosis ATCC 22019; test: Antifungal activity: MIC/MFC, disc-diffusion; format: cell-based; settings: for diameter of inhibition zone: C. parapsilosis ATCC 22019, (-) = zone not observed, paper discs 9 mm; for MIC: Lodderomyces parapsilosis, ATCC22019
Method in brief: as §2

S. marcescens ATCC 13880 = test: Antibacterial activity: MIC/MBC, MIC with PAβN, disc-diffusion; format: cell-based, Serratia marcescens; settings: Serratia marcescens, ATCC13880
Method in brief: as §1

P. aeruginosa ATCC 27853 = test: as above; format: cell-based; settings: Pseudomonas aeruginosa, ATCC27853
Method in brief: as §1

P. mirabilis ATCC 12453 = test: as above; format: cell-based, Proteus mirabilis; settings: Proteus mirabilis, ATCC12453
Method in brief: as §1

[3] = system: S. epidermidis ATCC 12228; test: Antibacterial activity: MIC/MBC determination and disc-diffusion; format: cell-based; settings: Staphylococcus epidermidis, ATCC12228
Method in brief: (§3)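 Inhibitory and cidal concentrations (MIC; MBC/MFC) were measured following CLSI, with EUCAST also applied to MIC and disc-diffusion testing. Each strain was revived from −80 °C stocks by two passages at 30 °C for 24–48 h.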

E. faecalis ATCC 29212 = test: as above; format: cell-based; settings: Enterococcus faecalis, ATCC29212
Method in brief: as §3

[4] = A. baumannii ATCC 19606, read-out: MIC
[5] = S. marcescens ATCC 13880, read-out: MIC
[6] = P. aeruginosa ATCC 27853, read-out: MIC
[7] = P. mirabilis ATCC 12453, read-out: MIC
[8] = S. epidermidis ATCC 12228, read-out: MIC
[9] = E. faecalis ATCC 29212, read-out: MIC

| SMILES | MIC (A. baumannii ATCC 19606; [4]) [µg/mL] | MIC (C. tropicalis IBA 171; read-out: MIC) [µg/mL] | MIC ([1]; read-out: MIC) [µg/mL] | MIC (C. tropicalis ATCC 750; read-out: MIC) [µg/mL] | diameter of inhibition zone [2] [mm] | MIC ([2]; read-out: MIC) [µg/mL] | MIC (S. marcescens ATCC 13880; [5]) [µg/mL] | MIC (P. aeruginosa ATCC 27853; [6]) [µg/mL] | MIC (P. mirabilis ATCC 12453; [7]) [µg/mL] | MBC ([3]; S. epidermidis ATCC 12228) [µg/mL] | MIC [3, 8] [µg/mL] | MBC (E. faecalis ATCC 29212; E. faecalis ATCC 29212) [µg/mL] | MIC (E. faecalis ATCC 29212; [9]) [µg/mL] | other results |
| --- | --- | --- | --- | --- | --- | --- | --- | --- | --- | --- | --- | --- | --- | --- |
| C[Si]1(C)OB(O)c2cc(F)c(SC3CC(=O)N(c4ccc(Br)c(C(F)(F)F)c4)C3=O)c(F)c21 (stereo not drawn) [Compound 16, 1-(4-Bromo-3-(trifluoromethyl)phenyl)-3-((5,7-difluoro-3-hydroxy-1,1-dimethyl-1,3-dihydrobenzo[c][1,2,5]oxasilaborol-6-yl)thio)pyrrolidine-2,5-dione] | > 200 | 50 (≈ 88.3 µM) | 12.5 (≈ 22.1 µM) | 50 (≈ 88.3 µM) | 24 | 50 (≈ 88.3 µM) | > 200 | > 200 | > 200 | 100 (≈ 177 µM) | 50 (≈ 88.3 µM) | 200 (≈ 353 µM) | 25 (≈ 44.2 µM) | diameter of inhibition zone (C. tropicalis IBA 171): 19 mm; diameter of inhibition zone [1]: 30 mm; MFC [1]: 50 µg/mL (≈ 88.3 µM); diameter of inhibition zone (C. tropicalis ATCC 750): 19 mm |
| C[Si]1(C)OB(O)c2ccc(SC3CC(=O)N(c4ccc(Br)c(C(F)(F)F)c4)C3=O)c(F)c21 (stereo not drawn) [Compound 17, 1-(4-Bromo-3-(trifluoromethyl)phenyl)-3-((7-fluoro-3-hydroxy-1,1-dimethyl-1,3-dihydrobenzo[c][1,2,5]oxasilaborol-6-yl)thio)pyrrolidine-2,5-dione] | > 200 | 200 (≈ 365 µM) | 50 (≈ 91.2 µM) | 100 (≈ 182 µM) | 22 | 50 (≈ 91.2 µM) | > 200 | > 200 | > 200 | 100 (≈ 182 µM) | 12.5 (≈ 22.8 µM) | 200 (≈ 365 µM) | 12.5 (≈ 22.8 µM) | diameter of inhibition zone (C. tropicalis IBA 171): 16 mm; diameter of inhibition zone [1]: 27 mm; MFC [1]: 200 µg/mL (≈ 365 µM); diameter of inhibition zone (C. tropicalis ATCC 750): 14 mm |
| C[Si]1(C)OB(O)c2cc(F)c(SCCC(=O)OCCCCCC[n+]3ccccc3)c(F)c21 [Compound 18, 1-(6-((3-((5,7-difluoro-3-hydroxy-1,1-dimethyl-1,3-dihydrobenzo[c][1,2,5]oxasilaborol-6-yl)thio)propanoyl)oxy)hexyl)pyridin-1-ium trifluoromethanesulfonate] | > 400 | 400 | > 400 | 400 | 14 | 400 | > 400 | > 400 | > 400 | 200 | 50 | – | 200 | – |
| C[Si]1(C)OB(O)c2ccc(SCCC(=O)OCCCCCC[n+]3ccccc3)c(F)c21 [Compound 19, 1-(6-((3-((7-Fluoro-3-hydroxy-1,1-dimethyl-1,3-dihydrobenzo[c][1,2,5]oxasilaborol-6-yl)thio)propanoyl)oxy)hexyl)pyridin-1-ium trifluoromethanesulfonate] | > 400 | 400 | > 400 | 400 | 16 | 400 | > 400 | > 400 | > 400 | 100 | 25 | 400 | 100 | diameter of inhibition zone (C. tropicalis IBA 171): 16 mm; diameter of inhibition zone (C. tropicalis ATCC 750): 15 mm |
| C[Si]1(C)OB(O)c2cc(F)c(SCCS(=O)(=O)c3ccccc3)c(F)c21 [Compound 20, 5,7-Difluoro-1,1-dimethyl-6-((2-(phenylsulfonyl)ethyl)thio)benzo[c][1,2,5]oxasilaborol-3(1H)-ol] | > 400 | > 400 | > 400 | > 400 | – | > 400 | > 400 | > 400 | > 400 | 400 (≈ 965 µM) | 25 (≈ 60.3 µM) | – | 100 (≈ 241 µM) | – |
| C[Si]1(C)OB(O)c2ccc(SCCS(=O)(=O)c3ccccc3)c(F)c21 [Compound 21, 7-Fluoro-1,1-dimethyl-6-((2-(phenylsulfonyl)ethyl)thio)benzo[c][1,2,5]oxasilaborol-3(1H)-ol] | > 400 | 400 (≈ 1010 µM) | > 400 | > 400 | – | 400 (≈ 1010 µM) | > 400 | > 400 | > 400 | – | 25 (≈ 63.1 µM) | – | 200 (≈ 505 µM) | – |
| CC(=O)CSc1ccc2c(c1F)[Si](C)(C)OB2O [Compound 22, 1-((7-Fluoro-3-hydroxy-1,1-dimethyl-1,3-dihydrobenzo[c][1,2,5]oxasilaborol-6-yl)thio)propan-2-one] | > 400 | > 400 | > 400 | > 400 | – | > 400 | > 400 | > 400 | > 400 | 12.5 (≈ 44 µM) | 6.25 (≈ 22 µM) | 400 (≈ 1410 µM) | 25 (≈ 88 µM) | – |
| C[Si]1(C)OB(O)c2ccc(SCC(=O)c3ccccc3)c(F)c21 [Compound 23, 2-((7-Fluoro-3-hydroxy-1,1-dimethyl-1,3-dihydrobenzo[c][1,2,5]oxasilaborol-6-yl)thio)-1-phenylethan-1-one] | > 400 | 400 (≈ 1160 µM) | > 400 | 400 (≈ 1160 µM) | – | 400 (≈ 1160 µM) | > 400 | > 400 | > 400 | 50 (≈ 144 µM) | 12.5 (≈ 36.1 µM) | 200 (≈ 578 µM) | 50 (≈ 144 µM) | – |
| CCOP(=O)(OCC)Sc1c(F)cc2c(c1F)[Si](C)(C)OB2O [Compound 24, S-(5,7-Difluoro-3-hydroxy-1,1-dimethyl-1,3-dihydrobenzo[c][1,2,5]oxasilaborol-6-yl) O,O-diethyl phosphorothioate] | – | – | – | – | – | – | – | – | – | – | – | – | – | MIC (A. baumannii ATCC 19606): > 400 µg/mL; MIC (C. tropicalis IBA 171): > 400 µg/mL; MIC [1]: > 400 µg/mL; MIC (C. tropicalis ATCC 750): > 400 µg/mL; MIC [2]: > 400 µg/mL; MIC (S. marcescens ATCC 13880): > 400 µg/mL; MIC (P. aeruginosa ATCC 27853): > 400 µg/mL; MIC (P. mirabilis ATCC 12453): > 400 µg/mL; MIC [3]: 100 µg/mL (≈ 262 µM); MIC (E. faecalis ATCC 29212): > 400 µg/mL |
| C[Si]1(C)OB(O)c2ccc(SC(=O)c3ccc(C(F)(F)F)cc3)c(F)c21 [Compound 25, S-(7-Fluoro-3-hydroxy-1,1-dimethyl-1,3-dihydrobenzo[c][1,2,5]oxasilaborol-6-yl) 4-(trifluoromethyl)benzothioate] | > 50 | 50 (≈ 125 µM) | 50 (≈ 125 µM) | > 50 | – | > 50 | > 50 | > 50 | > 50 | 25 (≈ 62.5 µM) | 3.12 (≈ 7.8 µM) | 25 (≈ 62.5 µM) | 12.5 (≈ 31.2 µM) | – |
| C[Si]1(C)OB(O)c2cc(F)c(S(=O)(=O)Cl)c(F)c21 [Compound 26, 5,7-Difluoro-3-hydroxy-1,1-dimethyl-1,3-dihydrobenzo[c][1,2,5]oxasilaborole-6-sulfonyl chloride] | > 400 | > 400 | > 400 | > 400 | – | > 400 | > 400 | > 400 | > 400 | – | 200 | – | 200 | – |
| C[Si]1(C)OB(O)c2cc(F)c(S(N)(=O)=O)c(F)c21 [Compound 27, 5,7-Difluoro-3-hydroxy-1,1-dimethyl-1,3-dihydrobenzo[c][1,2,5]oxasilaborole-6-sulfonamide] | > 400 | > 400 | > 400 | > 400 | – | > 400 | > 400 | > 400 | > 400 | – | > 400 | – | 400 (≈ 1360 µM) | – |
| C[Si]1(C)OB(O)c2cc(F)c(S(=O)(=O)Nc3ccc(F)cc3)c(F)c21 [Compound 28, 5,7-Difluoro-N-(4-fluorophenyl)-3-hydroxy-1,1-dimethyl-1,3-dihydrobenzo[c][1,2,5]oxasilaborole-6-sulfonamide] | > 400 | > 400 | > 400 | > 400 | – | > 400 | > 400 | > 400 | > 400 | 100 (≈ 258 µM) | 50 (≈ 129 µM) | – | 400 (≈ 1030 µM) | – |
